Patent US20160264593A1 (priority 2013, published 2016)
Read-outs that look alike come from different tables or passages of the source.

Assay: Pharmacokinetic study of 157 (and metabolite endothal) in SD rats, iv and po; plasma, liver, brain
Type: in vivo
Details: for AUC(0-inf) / AUC / Cmax / MRT last / half-life / concentration at 0.25 h / concentration at 1 h: 1.5 mg/kg; for AUC: read-out: AUC; for MRT last: read-out: MRT (0-t)
Procedure: The blood, liver and brain tissue samples were collected at predetermined times from rats. […] Compound were diluted shortly before use in 4% sodium bicarbonate for sterile injection (this is the standard pediatric solution of NaHCO3 with a pH of about 8.5).
Compound 153 was freshly prepared by diluting the drugs shortly before use in 4% sodium bicarbonate for sterile injection (this is the standard pediatric solution of NaHCO3 with a pH of about 8.5). The final concentrations of 153 solutions were 0.25 mg/mL. The 153 solutions were administered via iv or po route at dose volume of 5 ml/kg according to the latest body weight. Compound 157 was freshly prepared by diluting the drugs shortly before use in 4% sodium bicarbonate for sterile injection (this is the standard pediatric solution of NaHCO3 with a pH of about 8.5). The final concentrations of […] solutions were 0.3 mg/mL. The 157 solutions were administered via iv or po route at dose volume of 5 ml/kg according to the latest body weight.
Twelve (12) female SD rats per group were dosed by iv with 153 or 157. The rats were fasted overnight prior to dosing, with free access to water. Foods were withheld for 2 hours post-dose. Blood, liver and brain tissue samples in two animals each group were collected at each time point, within 10% of the scheduled time for each time point. Two extra animals were used for analytic method development.
Blood (>0.3 mL) were collected via aorta abdominalis in anaesthetic animals into tubes containing heparin at 15 min, 1, 2, 6, 10 and 24 hours after iv administration. Liver and brain tissues were collected immediately after animal death. The liver and brain tissues were excised and rinsed with cold saline to avoid blood residual. Upon collection, each sample was placed on ice and the blood samples were subsequently centrifuged (4° C., 11000 rpm, 5 min) to separate plasma. The obtained plasma, liver and brain tissue samples were stored at −70° C. until LC-MS/MS analysis.
Two (2) female SD rats per group were dosed by po with 153 or 157. The rats were fasted overnight prior to dosing, with free access to water. Foods were withheld for 2 hours post-dose. Blood samples (>0.3 mL) were collected via aorta abdominalis in anaesthetic animals into tubes containing heparin at 30 min, 1, 2, 6, 10 and 24 hours after po administration.
To each sample, 30 μL IS-D (for blank samples, 20 μL acetonitrile:water (1:1) was added) and 300 μl acetonitrile was added. The sample mixture was vortexed for approximately 3 min. After centrifugation at 10000 rpm for 5 min at 4° C., 100 μL of the upper layer was transferred to a new tube and added 200 μL 0.4% formic acid in water (pH6.0). The mixture was vortexed for approximately 3 min before injected onto the LC/MS/MS system for analysis.
On the day of the assay, the frozen liver and brain samples were thawed unassisted at room temperature. An about 200 mg weighed sample of each thawed tissue was placed into a plastic tube with water (0.6 mL) to facilitate homogenization. Tissue processing was conducted using a homogenizer for approximately 1 min, 100 μl homogenate was transferred into a fresh Eppendorf tube. To each tube, 50 μL IS-D was added and mixed. Then 500 μl acetonitrile was added and the sample mixture was vortexed for approximately 3 min. After centrifugation at 10000 rpm for 5 min at 4° C., 100 μL of the upper layer was transferred to a new tube and evaporate the supernatant to dryness at 35° C. Reconstitute the residue with 200 μL of 0.4% formic acid in water (pH 6.0), and vortex for 3 min, submit for LC-MS/MS analysis.
Frozen unknown plasma samples were completely thawed at room temperature and vortexed thoroughly. With a pipette, 50 μL of plasma was transferred into a 2.0 mL Eppendorf tube. 50 μL of 0.1N HCl and 800 μL ethyl acetate were added into each sample. The sample mixture was vortexed for approximately 3 min.

[1] = female, SD (Sprague-Dawley), rat, in vivo, iv, 157 in plasma, IV 1.5 mg/kg, Mean
[2] = female, SD (Sprague-Dawley), rat, in vivo, iv, 157 in plasma, IV 1.5 mg/kg, rat 1
[3] = female, SD (Sprague-Dawley), rat, in vivo, iv, 157 in plasma, IV 1.5 mg/kg, rat 2
[4] = female, SD (Sprague-Dawley), rat, in vivo, po, 157 in plasma, PO 1.5 mg/kg, Mean
[5] = female, SD (Sprague-Dawley), rat, in vivo, po, 157 in plasma, PO 1.5 mg/kg, rat 1
[6] = female, SD, rat, in vivo, iv, iv 1.5 mg/kg, Mean, read-out: 157 brain concentration
[7] = female, SD, rat, in vivo, iv, iv 1.5 mg/kg, Mean, read-out: 157 liver concentration
[8] = female, SD, rat, in vivo, iv, iv 1.5 mg/kg, Rat 1, read-out: 157 brain concentration
[9] = female, SD, rat, in vivo, iv, iv 1.5 mg/kg, Rat 2, read-out: 157 brain concentration

CCCCCCCOC(=O)C1C2CCC(O2)C1C(=O)N1CCN(C)CC1 (stereo not shown) [Compound 157, 3-(4-Methylpiperazine-1-carbonyl)-7-oxa-bicyclo[2,2,1]heptane-2-carboxylic acid heptyl ester]
F (157, PO 1.5 mg/kg vs IV 1.5 mg/kg, Mean): 6.78%
conversion to endothal in the plasma (statement) (157 administered to rats): converted to endothal
Tmax (157 in Brain, iv 1.5 mg/kg, Mean): 15 min
Tmax (157 in Brain, iv 1.5 mg/kg, rat 1): 15 min
Tmax (157 in Brain, iv 1.5 mg/kg, rat 2): 15 min
Tmax (157 in Liver, iv 1.5 mg/kg, rat 1): 15 min
Tmax (157 in Liver, iv 1.5 mg/kg, rat 2): 15 min
Tmax (157 in plasma, IV 1.5 mg/kg, Mean): 15 min
Tmax (157 in plasma, IV 1.5 mg/kg, rat 2): 15 min
Tmax (157 in plasma, PO 1.5 mg/kg, rat 1): 30 min
AUClast of 157 in brain (157 iv 1.5 mg/kg): 24.6 ng·h/g
AUClast of 157 in liver (157 iv 1.5 mg/kg): 152 ng·h/g
oral availability of 157 (statement) (157 po 1.5 mg/kg): poorly orally available
Tmax (female, SD (Sprague-Dawley), in vivo, 157 in plasma, IV 1.5 mg/kg, rat 1, read-out: Tmax): 15 min
AUC(0-inf) [1]: 47.2 ng·h/mL
AUC [1]: 47.2 ng·h/mL
Cmax (female, SD (Sprague-Dawley), rat, in vivo, iv, 157 in plasma, IV 1.5 mg/kg, Mean, read-out: Cmax): 115 ng/mL
MRT last [1]: 20.5 min
half-life (female, SD (Sprague-Dawley), rat, in vivo, iv, 157 in plasma, IV 1.5 mg/kg, Mean, read-out: T1/2 (converted)): 23.5 min
AUC(0-inf) [2]: 47.1 ng·h/mL
AUC [2]: 47.1 ng·h/mL
Cmax (female, SD (Sprague-Dawley), rat, in vivo, iv, 157 in plasma, IV 1.5 mg/kg, rat 1, read-out: Cmax): 116 ng/mL
MRT last [2]: 20 min
half-life (female, SD (Sprague-Dawley), rat, in vivo, iv, 157 in plasma, IV 1.5 mg/kg, rat 1, read-out: T1/2 (converted)): 24.5 min
AUC(0-inf) [3]: 47.3 ng·h/mL
AUC [3]: 47.3 ng·h/mL
Cmax (female, SD (Sprague-Dawley), rat, in vivo, iv, 157 in plasma, IV 1.5 mg/kg, rat 2, read-out: Cmax): 114 ng/mL
MRT last [3]: 20.9 min
half-life (female, SD (Sprague-Dawley), rat, in vivo, iv, 157 in plasma, IV 1.5 mg/kg, rat 2, read-out: T1/2 (converted)): 22.4 min
AUC(0-inf) [4]: 3.2 ng·h/mL
AUC [4]: 3.2 ng·h/mL
Cmax (female, SD (Sprague-Dawley), rat, in vivo, po, 157 in plasma, PO 1.5 mg/kg, Mean, read-out: Cmax): 6.14 ng/mL
MRT last [4]: 56.8 min
half-life (female, SD (Sprague-Dawley), rat, in vivo, po, 157 in plasma, PO 1.5 mg/kg, Mean, read-out: T1/2 (converted)): 24.2 min
AUC(0-inf) [5]: 3.4 ng·h/mL
AUC [5]: 3.4 ng·h/mL
Cmax (female, SD (Sprague-Dawley), rat, in vivo, po, 157 in plasma, PO 1.5 mg/kg, rat 1, read-out: Cmax): 5.92 ng/mL
MRT last [5]: 59.3 min
half-life (female, SD (Sprague-Dawley), rat, in vivo, po, 157 in plasma, PO 1.5 mg/kg, rat 1, read-out: T1/2 (converted)): 26.2 min
Tmax (female, SD (Sprague-Dawley), rat, in vivo, 157 in plasma, PO 1.5 mg/kg, Mean, read-out: Tmax): 30 min
half-life (female, SD, rat, in vivo, iv, 157 iv 1.5 mg/kg, read-out: T1/2 of 157 in brain (converted)): 9.72 min
half-life (female, SD, rat, in vivo, iv, 157 iv 1.5 mg/kg, read-out: T1/2 of 157 in liver (converted)): 48.8 min
half-life (female, SD, rat, in vivo, iv, 157 iv 1.5 mg/kg, read-out: T1/2 of 157 in plasma (converted)): 23.5 min
Cmax (female, SD, rat, in vivo, iv, 157 iv 1.5 mg/kg, read-out: mean Cmax of 157 in brain): 60 ng/g
Cmax (female, SD, rat, in vivo, iv, 157 iv 1.5 mg/kg, read-out: mean Cmax of 157 in liver): 297 ng/g
Cmax (female, SD, rat, in vivo, iv, 157 iv 1.5 mg/kg, read-out: mean Cmax of 157 in plasma): 115 ng/mL
concentration at 0.25 h [6]: 60 ng/g
concentration at 0.25 h [7]: 297 ng/g
concentration at 0.25 h [8]: 60 ng/g
concentration at 0.25 h [9]: 60 ng/g
concentration at 1 h [6]: 2.4 ng/g
concentration at 1 h [7]: 23.5 ng/g
concentration at 1 h [8]: 1.99 ng/g
concentration at 1 h (female, SD, rat, in vivo, iv, iv 1.5 mg/kg, Rat 1, read-out: 157 liver concentration): 29.4 ng/g
concentration at 1 h [9]: 2.8 ng/g
